Results on one compound are retold here after patent US20120165403A1, “METHODS OF INHIBITING THE ACTIVITY OF HSP90 AND/OR ARYL HYDROCARBON RECEPTOR” (UNIVERSITY OF ROCHESTER, priority 2004, published 2012).

Structures are written as SMILES.

Data set [1] relates to TCDD-mediated CYP1A1 gene induction. Put plainly: CYP1A1 expression by Western blot in Hepa1c1c7 cells. The data set is classed as cell-based, mouse. The procedure:
Mouse hepatoma cells, Hepa1c1c7 (Hepa), and BP^rCl cells were maintained in modified Eagle's medium (Sigma) supplemented with 10% heat-inactivated fetal bovine serum, sodium pyruvate, L-glutamine, sodium bicarbonate, and Gentamicin (MEM+), at 37° C. in a humid atmosphere with 5% CO2. BP^rCl cells are a derivative of Hepa1c1c7 cells that lack ARNT protein expression and function (Probst et al., Mol. Pharmacol. 44:511-518 (1993), which is hereby incorporated by reference in its entirety). Upon reaching 90% confluency, cells were harvested and homogenized in HEDG buffer (25 mM HEPES, 1.5 mM Na2EDTA, 1 mM dithiothreitol, 10% (v/v) glycerol, pH 7.6) containing protease inhibitors (Roche Applied Science complete mini cocktail tablet, Indianapolis, Ind.). Both Hepa and BP^rC1 cytosols were prepared by centrifugation of the homogenate at 100,000 g for 45 min.
Hepa cells were plated onto 6-well plates at a density of 5×10^5 cells/well and incubated overnight at 37° C. Cells were treated with vehicle (DMSO), TCDD (150 pM), EGCG, or EGCG in the presence of TCDD (150 pM) for 4 hrs. Cells were lysed (0.2% Triton, 5 mM EDTA in PBS) and total protein quantified using the Coomassie Plus Protein Assay Reagent (Pierce, Rockford, Ill.). Protein (30 μg) was separated by SDS-PAGE (7.5% acrylamide resolving gel) and transferred to PVDF membrane (Millipore, Bedford, Mass.). […]
A general note: A western blot detects proteins with antibodies after separation by electrophoresis.

Data set [2] concerns hsp90. Put plainly: Affinity chromatography on EGCG-conjugated Sepharose, Hepa cytosol hsp90. The data set is classed as binding, mouse.
The test system of data set [3] is AhR. Type of data set: biochemical, mouse. The procedure:
Hepa cytosol (2.5 mg protein/ml) was incubated with a range of concentrations of EGCG (1-200 μM) or EGCG in the presence of 3 nM TCDD for 2 h at room temperature. Treated cytosols (21-25 μg) were mixed with nonspecific DNA (herring sperm), 0.08M NaCl, and 25,000-45,000 cpm of [^32P]-endlabeled oligonucleotide containing a single consensus DRE (Gasiewicz et al., Biochem. Pharmacol. 52:1787-1803 (1996), which is hereby incorporated by reference in its entirety). Samples were subjected to nondenaturing electrophoresis (4% acrylamide) and visualized using a Phosphoimager.

Data set [4] concerns hsp90. Briefly: Sucrose density gradient sedimentation of hsp90 in Hepa cytosol. Type of data set: biochemical, mouse. The conditions noted are these: 2 h, 200 μM EGCG or 10 nM TCDD. The procedure: Competitive binding of EGCG was analyzed by velocity sedimentation on sucrose gradients in a vertical tube rotor (Tsui et al., Can. J. Physiol. Pharmacol 59:927-931 (1981); Jensen et al., Toxicol. Sci. 64:41-56 (2001), which are hereby incorporated by reference in their entirety). Hepa cytosol (100 μl of 2.5 mg/ml) or BP^rCl cytosol was incubated for two hours at room temperature with either 3 nM ^3H-TCDD, 0.5 nM ^3H-TCDD, or 5 nM ^3H-BNF, in the presence of DMSO, 150-fold excess TCDF, 1 μM 3M4NF, or EGCG. […] For competitive binding assays, fractions were assayed for radioactivity with ScintiVerse (Fisher Scientific, Fair Lawn, N.J.). […] For AhR and hsp90 density analysis, protein contained within an aliquot (200 of each fraction was separated by SDS-PAGE (7.5% acrylamide resolving gel) and transferred to PVDF membranes. Membranes were probed with antibodies recognizing AhR (Biomol) or hsp90 (Stressgen, Victoria, BC Canada). A crude estimate of the sedimentation coefficient for the EGCG shifted AhR complex was calculated by the method of Martin and Ames (Martin et al., J. Biol. Chem. 236:1372-1379 (1961), which is hereby incorporated by reference in its entirety) relative to the ^14C-BSA (4.4S) standard.

Take `O=C(O[C@@H]1Cc2c(O)cc(O)cc2O[C@@H]1c1cc(O)c(O)c(O)c1)c1cc(O)c(O)c(O)c1` [EGCG, epigallocatechin gallate]: the “CYP1A1 gene induction, treatment alone” value in data set [1] (EGCG alone, Western blot) is “no effect on CYP1A1 gene induction”. In addition, the “inhibition of TCDD-mediated CYP1A1 gene induction” value in data set [1] (simultaneously with 150 pM TCDD) was “concentration-dependent inhibition”. Besides, the “binding of hsp90 to EGCG-Sepharose” value in data set [2] is “also eluted from EGCG-Sepharose”. The “DRE binding, treatment alone” value in data set [3] (Hepa cytosol and extracts from treated whole cells, EGCG alone) is recorded as “DRE binding was not observed”. Also, in data set [3] (Hepa cytosol, 100 μM EGCG, 3 nM TCDD, 2 h), the “inhibition of TCDD-induced AhR-DRE binding” value is reported as about 100%. Besides, the “effect on the TCDD-AhR-DRE shifted band” value in data set [3] (Hepa cytosol, EGCG 1-200 μM, 3 nM TCDD) is listed as “concentration dependent decrease”. The “effect on the sedimentation pattern of hsp90” value in data set [4] is “dramatically altered the sedimentation pattern of hsp90”.
